Non-standard residues stand in square brackets, D forms with d. Residues, ends and D or L forms follow the SMILES beside them. Aib = CC(C)(N)C(=O)O

This note sets out measurements from patent US10836792B2, “Retro-inverso peptide inhibitors of cell migration, extracellular matrix and endothelial invasion by tumor cells” (ISTITUTO NAZIONALE TUMORI IRCCS “FONDAZIONE G. PASCALE”, priority 2016, dated 2020).

One data set concerns the target T1, FPR1 (Homo sapiens, UniProt P21462).
T1 construct: expressed in transfected cells; host or cells: rat basophilic leukaemia RBL-2H3/ETFR cells
T1 sequence (P21462 1-350): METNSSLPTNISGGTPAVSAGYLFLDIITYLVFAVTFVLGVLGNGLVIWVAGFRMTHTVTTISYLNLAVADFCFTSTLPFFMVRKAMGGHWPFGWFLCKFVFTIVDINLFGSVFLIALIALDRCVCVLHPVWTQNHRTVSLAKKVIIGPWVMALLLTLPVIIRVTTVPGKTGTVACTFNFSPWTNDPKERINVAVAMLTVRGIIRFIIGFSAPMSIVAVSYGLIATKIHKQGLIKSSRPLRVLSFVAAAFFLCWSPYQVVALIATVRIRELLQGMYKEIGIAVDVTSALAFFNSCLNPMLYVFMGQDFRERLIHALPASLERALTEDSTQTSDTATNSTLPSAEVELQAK
The experiment in a line: Competition with FITC-fMLF binding to RBL-2H3/ETFR cells stably expressing FPR1. The note with it: 100 nM pre-incubation 60 min at 4° C., then 10 nM FITC-fMLF. As to the method: Cell-associated fluorescence was measured using a fluorescence plate reader. The results are depicted in FIG. 3. […] To evaluate the effect of RI-3 on agonist-dependent FPR1 internalization, binding experiments were performed at 37° C. and cells were visualized using a Zeiss 510 Meta LSM microscope. Original magnifications: 630×. Scale bar: 10 μm.

Data set [1] has as its system HT1080 cells. The experiment in a line: FBS-directed migration of HT1080 cells in Boyden chambers. It counts as cell-based, human. The note with it: 10 nM peptide, 10% FBS, 4 hrs. As to the method: FIG. 4 Retro-inverso peptides inhibit FBS-directed migration of HT1080 cells in a dose dependent manner (Example 4).
To assess whether retro-inverso peptides exert some effect on directional cell migration, HT1080 cells were allowed to migrate for 4 hrs in Boyden chambers toward serum-free medium (CTRL), 10% FBS (None) or 10% FBS mixed with peptides, each tested at 10 nM concentration. For quantitative analysis, the basal values assessed in the absence of FBS (CTRL) was taken as 100% and all values were reported relative to that. Data are the means±SD of two independent experiments, performed in triplicate. Statistical significance calculated against None with *p<0.01, **p<0.001 (A). All retro-inverso peptides caused a reduction of FBS-directed cell migration although to different extent. Peptides RI-1, RI-2, RI-3, RI-4 and RI-5 reduced by 49%, 46%, 65%, 9% and 6%, respectively, the extent of FBS-directed cell migration. Similar results were obtained when, HT1080 cell migration was monitored in real time for 18 hrs at 37° C., 5% CO2 by the xCELLigence system. Data represent mean±SD from a quadruplicate experiment representative of 2 replicates (B). Then, HT1080 cells were allowed to migrate in Boyden chambers toward 10% FBS plus increasing concentrations of RI-3, and data were expressed as a percentage of cells migrated toward FBS alone (100%) Inhibitory effect of RI-3 is dose-dependent, it starts in the high fM range, it seems to level off in the nM range and reaches an overall 50% reduction at 1×10^−13M (C).

Data set [2] deals with HT1080 cells. The experiment in a line: Proliferation of HT1080 cells (xCELLigence). The format is cell-based, human. As to conditions: 10 μM, 2-26 time range. As to the method: Cell proliferation of HT1080 cells was monitored for 75 hrs using the xCELLigence technology. Cells (1×10^3 cells/well) were seeded on E-plates in growth medium (None) or growth medium plus 10 μM RI-3 and allowed to proliferate at 37° C., 5% CO2. Medium was replaced every 24 hrs (arrows). Impedance value of each well was automatically monitored and expressed as cell index. Data represent mean±SD from a quadruplicate experiment representative of 2 replicates (A). […] In the 2-26 time range the doubling times of cells exposed to diluents or to RI-3 were 16.3828+/−0.22 hrs and 17.7648+/−0.27 hrs, respectively (B).

The nature of data set [3]: Stability in human serum, read out by HT1080 matrigel invasion in Boyden chambers. The format is in vitro ADME. As to conditions: 10^−3 mol/L in serum 18 hrs at 37° C., then 10 nM, invasion 6 hrs. Here is the method:
FIG. 7 The retro-inverso peptide RI-3 is stable when pre-incubated in bovine (A) or human serum (B) as assessed in real time using the xCELLigence technology (A) or in Boyden chambers (B) (Example 7).
The stability of the retro-inverso peptide RI-3 in bovine and human serum was investigated through incubation of the peptide at a 10^−3 mol/L in serum for 18 hrs at 37° C. HT1080 cells were allowed to migrate toward DMEM (CTRL), 10% FBS (None), 10% FBS plus 10 nM RI-3 or 10% FBS with 10 nM RI-3 pre-incubated with bovine serum and the impedance values were automatically monitored in real time by the xCELLigence system for 18 hrs and expressed as cell index. Data represent the means from a quadruplicate experiment representative of 2 replicates. […] The stability of RI-3 in human serum was further investigated in cell invasion experiments performed in Boyden chambers. HT1080 cells were allowed to invade matrigel for 6 hrs, toward DMEM (CTRL), 10% FBS (None), 10% FBS plus 10 nM RI-3 or 10% FBS with 10 nM RI-3 pre-incubated with human serum. For quantitative analysis of cell invasion, the basal value assessed in the absence of FBS (CTRL) was taken as 100% and all values were reported relative to that. Data are the means±SD from a triplicate experiment. *Statistical significance was calculated against None with p<0.005. […]

The subject of the next data set is HUVECs. The experiment in a line: Endothelial tube formation on matrigel. The note with it: 10 nM. The format is cell-based, human. Here is the method:
FIG. 10 At the concentration of 10 nM the retro-inverso peptide RI-3 inhibits both FBS (61%) and VEGF-triggered (75%) endothelial tube formation. (A) representative pictures taken with an inverted microscope at 100× magnifications. (B) quantitative analysis (Example 10).
Endothelial cells undergo morphological differentiation into an extensive network of capillary-like structures consisting of highly organized three-dimensional cords when seeded on matrigel in the presence of a pro-angiogenic stimuli. HUVECs were suspended in medium (CTRL) or medium with 10% FBS or 40 ng/ml VEGF165, without (None) or with 10 nM RI-3 and seeded on matrigel-coated plates for 6 hrs at 37° C., 5% CO2. Representative pictures were taken with an inverted microscope at 100× magnifications. Scale bar: 10 μm (A). Quantitative analysis of tube formation was calculated as a percentage of tubes formed by cord-like structures counted in the absence of any angiogenic stimulus and considered as 100% (CTRL). Data represent means±SD of two independent experiments performed in duplicate. Statistical significance was calculated against none with *p<0.05, **p<0.001 (B). Both FBS and VEGF promoted endothelial tube formation, reaching 352% and 620%, respectively, above basal. The retro-inverso peptide RI-3 reduced FBS- and VEGF-dependent tube formation by 61% and 75%, respectively.

Turning to `CC(=O)N[C@H](Cc1ccc(O)cc1)C(=O)N[C@H](CCCNC(=N)N)C(=O)NC(C)(C)C(=O)N[C@H](CCCNC(=N)N)C(N)=O` [RI-3, Ac-(D)-Tyr-(D)-Arg-Aib-(D)-Arg-NH2] (Ac-[dY][dR][Aib][dR]-NH2), at FPR1, the “inhibition of binding of fluorescent agonist (FITC-fMLF) to RBL-2H3/ETFR cells” value is on record as “to a similar extent as compared to fMLF”. Besides, the “reduction of the extent of FBS-directed cell migration” value with HT1080 cells [1] came to 65%. In addition, the “doubling time during exponential growth” value in the data set on HT1080 cells [2] came to 17.7648 ± 0.27 h. The “inhibitory activity retained after pre-incubation with human serum” value in data set [3] stood at 81%. The “reduction of VEGF-dependent tube formation” value in the data set on HUVECs (40 ng/ml VEGF165, 6 hrs) is 75%. The “reduction of FBS-dependent tube formation” value in the data set on HUVECs (10% FBS, 6 hrs) came out at 61%.
